Test results: article PMC9814838, “The orphan nuclear receptor Nurr1 is responsive to non-steroidal anti-inflammatory drugs” (Communications Chemistry, 2020)
Values joined by “and” are separate entries in the source; they are usually repeats but may differ in a detail not shown here. Equal entries are not always repeated. “Also recorded” adds a separate entry of the source. No end group written: not given here. fluorescein = fluorescein label on the N-terminus

T1: NOR1 (Homo sapiens, UniProt Q92570)
T1 construct: NOR1 (isoform alpha; uniprot entry: hNOR1–Q92570-1, residues 393–626); expressed in transfected cells; host or cells: HEK293T
T1 sequence (Q92570 393-626): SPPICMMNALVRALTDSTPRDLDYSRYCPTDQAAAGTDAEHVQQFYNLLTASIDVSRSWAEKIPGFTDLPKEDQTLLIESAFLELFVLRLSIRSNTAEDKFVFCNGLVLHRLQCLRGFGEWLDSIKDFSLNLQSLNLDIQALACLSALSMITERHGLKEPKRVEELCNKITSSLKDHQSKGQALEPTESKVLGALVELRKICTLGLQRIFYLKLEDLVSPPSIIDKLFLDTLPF


What was measured:
NBRE: Nurr1 monomer = target: T2, NBRE: Nurr1 monomer (Homo sapiens, UniProt P43354); test: Full-length Nurr1 reporter gene assay on NBRE response element; assay type: cell-based
T2 construct: the activity of full-length human Nurr1 in cellular settings; host or cells: HEK293T

[1] = target: T3, DR5: Nurr1–RXRα heterodimer (Homo sapiens, UniProt P43354); test: Full-length Nurr1 reporter gene assay on DR5 response element; assay type: cell-based; details: mean ± SD
T3 construct: the activity of full-length human Nurr1 in cellular settings; host or cells: HEK293T

NurRE: Nurr1 homodimer = target: T4, NurRE: Nurr1 homodimer (Homo sapiens, UniProt P43354); test: Full-length Nurr1 reporter gene assay on NurRE response element; assay type: cell-based; details: mean ± SD
T4 construct: the activity of full-length human Nurr1 in cellular settings; host or cells: HEK293T

Nurr1 = target: T5, Nurr1 (Homo sapiens, UniProt P43354); test: Gal4-Nurr1 hybrid reporter gene assay in HEK293T cells; assay type: cell-based; details: for Nurr1 activity 10μM (mean fold activation) / Nurr1 activity 30μM (mean fold activation): primary screen, n ≥ 2, ^# not significant vs VP16 control; for Nurr1-dependent reporter activity in primary screen (fold activation): 10 or 30 µM; for Gal4-Nurr1 maximum/minimum activation: vs 0.1% DMSO
T5 construct: Nurr1 (uniprot entry: hNURR1–P43354, residues 360–598); expressed in transfected cells; host or cells: HEK293T

Nurr1 LBD homodimer = target: T6, Nurr1 LBD homodimer (Homo sapiens, UniProt P43354); test: Nurr1 homodimerization HTRF (GFP-Nurr1 LBD vs Tb-labeled Nurr1 LBD); assay type: biochemical; details: cell-free; ligand 100 µM
T6 construct: Nurr1 (uniprot entry: P43354-1, residues 364–598); MBP-Asn10 linker (N, cleaved yes); His8-Tag (N, cleaved yes); His10-Tag (N, cleaved yes); made in house; host or cells: E. coli T7 express (with pGro7)
Protocol: Strength and modulation of the formation of the heterodimer composed of the LBDs of Nurr1 and RXRα was investigated by titration of GFP-RXRα LBD against a fixed concentration of Nurr1 LBD. Assay solutions were prepared in HTRF assay buffer supplemented with 0.1% (w/v) CHAPS as well as 1% DMSO with test compounds at 100 µM or DMSO alone as negative control. […] Free GFP was added to keep the total GFP content stable at 4 µM throughout the entire series in order to suppress artefacts from changes in degree of diffusion enhanced FRET. Samples were equilibrated at RT for 2 h before FI520 and FI620 were recorded after excitation at 340 nm, and the HTRF signal was calculated as described above.

Nurr1–NCoR-1 interaction = target: T7, Nurr1–NCoR-1 interaction (Homo sapiens, UniProt P43354); test: Nurr1–NCoR-1 interaction HTRF (GFP-Nurr1 LBD titrated against Tb-labeled NCoR-1); assay type: biochemical; details: cell-free; ligand fixed at 100 µM
T7 construct: Nurr1 (uniprot entry: P43354-1, residues 364–598); His10-Tag (N, cleaved yes); made in house; host or cells: E. coli T7 express (with pGro7)
Protocol: Since ligand concentration was fixed in this setting, interference with the HTRF system is less prone to generate potential artifacts.
To maintain a constant GFP concentration, free GFP protein was added to the dilution series. The experiments were performed in HTRF assay buffer (150 mM KF, 25 mM HEPES pH 7.5 (KOH), 5% (w/v) Glycerol, supplemented with 0.1% (w/v) CHAPS and 5 mM DTT) with 1% DMSO in an assay volume of 20 µl. After 1 h incubation at RT, fluorescence intensities after excitation at 340 nm were recorded at 520 nm for GFP acceptor fluorescence and 620 nm for Tb-SA donor fluorescence and the HTRF signal was calculated as described above.

NOR1 = target: T1, NOR1; test: Gal4-NOR1 hybrid reporter gene assay in HEK293T cells; assay type: cell-based; details: for Nor1 activity 10μM (mean fold activation) / Nor1 activity 30μM (mean fold activation): primary screen, n ≥ 2, ^# not significant vs VP16 control; for NOR1 min./max. activation: compared to 0.1% DMSO
PPAR; RXRα; RARα = test: Selectivity profiling in Gal4 hybrid reporter gene assays outside the NR4A family; assay type: cell-based, human; details: rel. activation vs reference agonists at 1 µM; n ≥ 4
Nur77 = target: T8, Nur77 (Homo sapiens, UniProt P22736); test: Gal4-Nur77 hybrid reporter gene assay in HEK293T cells; assay type: cell-based; details: for Nur77 activity 10μM (mean fold activation) / Nur77 activity 30μM (mean fold activation): primary screen, n ≥ 2, ^# not significant vs VP16 control; for Nur77 min./max. activation: compared to 0.1% DMSO
T8 construct: Nur77 (uniprot entry: hNUR77–P22736, residues 358–598); expressed in transfected cells; host or cells: HEK293T

Gal4-VP16 = target: T9, Gal4-VP16 (Human herpesvirus 1, UniProt P06492); assay type: cell-based; details: n ≥ 4
T9 construct: host or cells: HEK293T

[2] = target: T10, biotinylated recombinant Nurr1 LBD (Tb-labeled through Tb-cryptate streptavidin) (human, UniProt P43354-1 364-598, biotin on the lysine residue in the Avi-Tag); test: AlphaScreen or HTRF; co-regulator recruitment: biotinylated Nurr1 LBD 3 nM on Tb-SA 3 nM (donor), fluorescein-labeled peptide 100 nM (acceptor); HTRF assay buffer (25 mM HEPES pH 7.5, 150 mM KF, 10% glycerol, 5 mM DTT) with 0.1% CHAPS; 1% DMSO alone or with AQ, CQ, MFA, parecoxib or oxaprozin at 100 µM (dose-response too); 2 h at RT; details: both partners purified
T10 construct: In the assays coupled to terbium cryptate streptavidin conjugate (Tb-SA) as FRET donor; also called Tb-labeled Nurr1 LBD; Tb-cryptate-labeled Nurr1 LBD; source: E. coli T7 express with pGro7, purified (IMAC, TEV cleavage, amylose resin, birA biotinylation, monomeric avidin, SEC); not shown: MBP, N-terminal, cleaved; His8, N-terminal, cleaved; Avi-Tag, N-terminal, kept

[3] = full-length human Nurr1, HEK293T, mean ± SD
[4] = full-length human Nurr1 and RXRα overexpressed, HEK293T
[5] = full-length human Nurr1, HEK293T

T8 sequence (P22736 358-598): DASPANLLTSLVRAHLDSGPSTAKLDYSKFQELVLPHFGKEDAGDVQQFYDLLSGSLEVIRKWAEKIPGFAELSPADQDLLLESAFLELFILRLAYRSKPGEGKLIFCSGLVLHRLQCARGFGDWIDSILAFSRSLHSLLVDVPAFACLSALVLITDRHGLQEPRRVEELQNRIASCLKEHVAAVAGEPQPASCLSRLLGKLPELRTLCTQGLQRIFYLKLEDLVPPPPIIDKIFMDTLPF
T2 sequence (P43354 whole entry): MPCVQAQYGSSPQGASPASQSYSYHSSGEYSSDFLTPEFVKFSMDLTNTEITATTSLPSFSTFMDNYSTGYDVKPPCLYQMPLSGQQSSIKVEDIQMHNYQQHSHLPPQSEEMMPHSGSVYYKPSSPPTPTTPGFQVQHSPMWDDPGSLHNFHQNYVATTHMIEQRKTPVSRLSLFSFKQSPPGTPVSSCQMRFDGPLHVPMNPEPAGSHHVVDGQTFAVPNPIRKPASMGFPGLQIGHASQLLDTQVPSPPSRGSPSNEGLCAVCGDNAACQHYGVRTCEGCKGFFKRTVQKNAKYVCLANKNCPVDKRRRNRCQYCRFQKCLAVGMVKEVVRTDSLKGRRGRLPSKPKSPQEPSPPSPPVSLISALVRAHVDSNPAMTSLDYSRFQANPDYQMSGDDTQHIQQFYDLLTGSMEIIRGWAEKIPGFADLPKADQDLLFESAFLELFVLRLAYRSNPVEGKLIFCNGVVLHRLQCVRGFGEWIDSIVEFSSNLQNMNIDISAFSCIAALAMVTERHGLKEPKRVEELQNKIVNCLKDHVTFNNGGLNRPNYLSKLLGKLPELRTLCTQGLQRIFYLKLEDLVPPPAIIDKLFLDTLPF
T3 sequence (P43354 whole entry, one chain of several): as the sequence (P43354 whole entry) above
T4 sequence (P43354 whole entry): as above
T5 sequence (P43354 360-598): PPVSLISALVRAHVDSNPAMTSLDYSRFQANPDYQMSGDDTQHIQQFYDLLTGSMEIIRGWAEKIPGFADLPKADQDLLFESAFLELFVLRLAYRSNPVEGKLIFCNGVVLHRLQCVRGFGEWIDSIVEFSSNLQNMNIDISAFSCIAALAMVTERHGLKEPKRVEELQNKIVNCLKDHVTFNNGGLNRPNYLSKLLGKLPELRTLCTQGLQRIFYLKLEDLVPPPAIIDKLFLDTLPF
T6 sequence (P43354 364-598): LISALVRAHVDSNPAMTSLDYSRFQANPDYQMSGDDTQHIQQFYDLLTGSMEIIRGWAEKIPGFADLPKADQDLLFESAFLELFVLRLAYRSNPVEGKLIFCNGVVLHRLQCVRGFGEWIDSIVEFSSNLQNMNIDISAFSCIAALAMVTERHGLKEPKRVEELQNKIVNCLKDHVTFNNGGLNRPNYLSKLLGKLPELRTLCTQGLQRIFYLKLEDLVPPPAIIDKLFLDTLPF
T7 sequence (P43354 364-598): as above

Molecule	Nor1 activity 10μM (mean fold activation) (NOR1)	Nor1 activity 30μM (mean fold activation) (NOR1)	Nur77 activity 10μM (mean fold activation) (Nur77)	Nur77 activity 30μM (mean fold activation) (Nur77)	Nurr1 activity 10μM (mean fold activation) (Nurr1) [fold]	Nurr1 activity 30μM (mean fold activation) (Nurr1)	further results
CCN(CC)CCCC(C)Nc1ccnc2cc(Cl)ccc12 (stereo not drawn) [CQ, chloroquine]	–	–	–	–	–	–	EC50 (NBRE: Nurr1 monomer; [3]): 38 µM; EC50 [1, 4]: 57 µM; EC50 (NurRE: Nurr1 homodimer; [5]): 54 µM; EC50 (Nurr1; HEK293T, mean ± SD, n≥3): 47 µM; Homodimerization (effect of ligand) (Nurr1 LBD homodimer): promoted homodimerization; also recorded: Promotes dimerization; NCoR-1 affinity (effect of ligand) (Nurr1–NCoR-1 interaction): promoted the Nurr1–NCoR-1 interaction; also recorded: Enhances affinity
Cc1ccc(Cl)c(Nc2ccccc2C(=O)O)c1Cl [MFA, Meclofenamic acid]	3.92 fold	toxic	3.01 fold	toxic	3.60	toxic	NBRE: Nurr1 monomer activity in words (NBRE: Nurr1 monomer; [5]): Inactive; IC50 [1, 4]: 10.7 µM; DR5: Nurr1–RXRα heterodimer maximum/minimum activation [1]: 0.79 ± 0.01 fold; EC50 (NOR1; HEK293T, mean ± SD, n≥3): 7.9 ± 0.8 µM; NOR1 min./max. activation (NOR1; mean ± SD): 5.5 ± 0.6; IC50 (NurRE: Nurr1 homodimer; [5]): 5.2 µM; NurRE: Nurr1 homodimer maximum/minimum activation (NurRE: Nurr1 homodimer): 0.70 ± 0.01 fold; Selectivity over PPAR, RXRα, RARα (PPAR; RXRα; RARα): confirmed selectivity; EC50 (Nur77; HEK293T, mean ± SD, n≥3): 3.9 ± 0.7 µM; Nur77 min./max. activation (Nur77; mean ± SD): 3.3 ± 0.4; Nurr1-dependent reporter activity in primary screen (fold activation) (Nurr1): > 1.5 fold; EC50 (Nurr1; HEK293T, mean ± SD, n≥3): 4.7 µM; Gal4-Nurr1 maximum/minimum activation (Nurr1; mean ± SD): 3.52 ± 0.05 fold; Gal4-Nurr1 maximum/minimum activation (Nurr1; mean ± SD, listed as meclofenamic acid): 3.52 ± 0.05 fold and 3.52 ± 0.07 fold; Homodimerization (effect of ligand) (Nurr1 LBD homodimer): entirely prevented homodimerization; also recorded: Decreases dimerization; NCoR-1 affinity (effect of ligand) (Nurr1–NCoR-1 interaction): markedly reduced affinity; also recorded: Decreases affinity; Control experiments on Gal4-VP16 (non-specific reporter effects) (Gal4-VP16): clearly Nurr1 mediated
CCC(=O)NS(=O)(=O)c1ccc(-c2c(-c3ccccc3)noc2C)cc1 [parecoxib]	–	–	–	–	–	–	IC50 (NBRE: Nurr1 monomer; [3]): 15 µM; NBRE: Nurr1 monomer maximum/minimum activation (NBRE: Nurr1 monomer; mean ± SD): 0.41 ± 0.05 fold; IC50 [1, 4]: 20 µM; DR5: Nurr1–RXRα heterodimer maximum/minimum activation [1]: 0.5 ± 0.1 fold; IC50 (NOR1; HEK293T, mean ± SD, n≥3, read-out: NOR1 IC50): 25 ± 4 µM; NOR1 min./max. activation (NOR1; mean ± SD): 0.22 ± 0.05; IC50 (NurRE: Nurr1 homodimer; [5]): 21 µM; NurRE: Nurr1 homodimer maximum/minimum activation (NurRE: Nurr1 homodimer): 0.4 ± 0.1 fold; IC50 (Nur77; HEK293T, mean ± SD, n≥3): 23.7 ± 0.2 µM; Nur77 min./max. activation (Nur77; mean ± SD): 0.1 ± 0.0; Homodimerization (effect of ligand) (Nurr1 LBD homodimer): diminished Nurr1 dimer formation; NCoR-1 affinity (effect of ligand) (Nurr1–NCoR-1 interaction): Decreases affinity; Control experiments on Gal4-VP16 (non-specific reporter effects) (Gal4-VP16): no non-specific reporter suppression
CN1C(C(=O)Nc2ccccn2)=C(O)c2ccccc2S1(=O)=O [piroxicam]	1.05 fold	1.01 fold	1.03 fold	0.92 fold	0.98	0.98 fold	–
CS(=O)(=O)c1ccc(C2=C(c3ccccc3)C(=O)OC2)cc1 [rofecoxib]	0.95 fold	1.01 fold	0.93 fold	0.91 fold	1.02	0.92 fold	–
O=C(O)c1ccccc1O [salicylic acid]	1.01 fold	0.99 fold	1.06 fold	1.02 fold	1.08	1.02 fold	–
CN1C(C(=O)Nc2ccccn2)=C(O)c2sccc2S1(=O)=O [tenoxicam]	0.95 fold	0.90 fold	0.98 fold	0.98 fold	1.04	0.99 fold	–
CC(C(=O)O)c1ccc(C(=O)c2ccccc2)s1 (stereo not drawn) [tiaprofenic acid]	1.37 fold	1.42 fold	1.35 fold	1.38 fold	1.52	1.46 fold	Nurr1-dependent reporter activity in primary screen (fold activation) (Nurr1): > 1.5 fold; Control experiments on Gal4-VP16 (non-specific reporter effects) (Gal4-VP16): non-specific activity
Cc1c(Cl)cccc1Nc1ccccc1C(=O)O [tolfenamic acid]	toxic	toxic	toxic	toxic	1.18	toxic	–
Cc1ccc(C(=O)c2ccc(CC(=O)O)n2C)cc1 [tolmetin]	1.08 fold	1.00 fold	1.10 fold	0.97 fold	1.08	1.13 fold	–
Cc1onc(-c2ccccc2)c1-c1ccc(S(N)(=O)=O)cc1 [valdecoxib]	1.05 fold	0.76 fold	0.90 fold	0.82 fold	0.79	0.54 fold	Selectivity over PPAR, RXRα, RARα (PPAR; RXRα; RARα): confirmed selectivity; Nurr1-dependent reporter activity in primary screen (fold activation) (Nurr1): < 0.80 fold; IC50 (Nurr1; HEK293T, mean ± SD, n≥3): 13 ± 3 µM; Gal4-Nurr1 maximum/minimum activation (Nurr1; mean ± SD): 0.52 ± 0.04 fold; Control experiments on Gal4-VP16 (non-specific reporter effects) (Gal4-VP16): no non-specific reporter suppression
CC(C(=O)O)c1ccc2c(c1)CC(=O)c1ccccc1S2 (stereo not drawn) [zaltoprofen]	0.89 fold	0.84 fold	0.80 fold	0.84 fold	0.97	0.94 fold	–
fluorescein-SHQKVTLLQLLLGHKNEEN (also called RIP140L6; source: bought: ThermoFisher Scientific (Life Technologies))	–	–	–	–	–	–	binding result [2]: binds
fluorescein-LPYEGSLLLKLLRAPVEEV (source: bought: ThermoFisher Scientific (Life Technologies)) [D22 peptide, fluorescein-labeled]	–	–	–	–	–	–	binding result [2]: binds
fluorescein-RTHRLITLADHICQIITQDFARN (also called NCoR-1; source: bought: ThermoFisher Scientific (Life Technologies)) [nuclear receptor co-repressor (NCOR) ID1 peptide, fluorescein-labeled]	–	–	–	–	–	–	binding result [2]: binds
fluorescein-HASTNMGLEAIIRKALMGKYDQW (also called NCoR-2; source: bought: ThermoFisher Scientific (Life Technologies)) [silencing mediator for retinoid and thyroid hormone receptor (SMRT) ID2 peptide, fluorescein-labeled]	–	–	–	–	–	–	binding result [2]: binds
fluorescein-VTLTSPLLVNLLQSDISAG (also called TRBP; source: bought: ThermoFisher Scientific (Life Technologies)) [nuclear receptor co-activator 6 (NCoA6, also termed PRIPRAP250) peptide, fluorescein-labeled]	–	–	–	–	–	–	binding result [2]: binds
